Patent publication US20020026053A1, “Novel 3-(substituted) -2- indolinones compounds and use thereof as inhibitors of protein kinase activity” (priority 1997, published 2002)

biological target: T1, Met receptor (EGFR/Met chimeric cells, EMR) (Homo sapiens, UniProt P08581); test: Met Autophosphorylation Assay; type: biochemical
T1 construct: expressed in transfected cells; the other entry of the earlier key: EGFR (P00533, Epidermal growth factor receptor)
Experimental: Met Autophosphorylation Assay
This assay determines Met tyrosine kinase activity by analyzing Met protein tyrosine kinase levels on the Met receptor.
a. HNTG (5× stock solution): Dissolve 23.83 g HEPES and 43.83 g NaCl in about 350 ml dH2O. Adjust pH to 7.2 with HCl or NaOH, add 500 ml glycerol and 10 ml Triton X-100, mix, add dH2O to 1 L total volume. To make 1 L of 1× working solution add 200 ml 5× stock solution to 800 ml dH2O, check and adjust pH as necessary, store at 4° C.
b. PBS (Dulbecco's Phosphate-Buffered Saline), Gibco Cat. # 450-1300EB (1× solution).
c. Blocking Buffer: in 500 ml dH2O place 100 g BSA, 12.1 g Tris-pH7.5, 58.44 g NaCl and 10 ml Tween-20, dilute to 1 L total volume.
d. Kinase Buffer: To 500 ml dH2O add 12.1 g TRIS (pH 7.2), 58.4 g NaCl, 40.7 g MgCl2 and 1.9 g EGTA; bring to 1 L total volume with dH2O.
e. PMSF (Phenylmethylsulfonyl fluoride), Sigma Cat. # P-7626, to 435.5 mg, add 100% ethanol to 25 ml total volume, vortex.
f. ATP (Bacterial Source), Sigma Cat. # A-7699, store powder at −20° C.; to make up solution for use, dissolve 3.31 mg in 1 ml dH2O.
g. RC-20H HRPO Conjugated Anti-Phosphotyrosine, Transduction Laboratories Cat. # E120H.
h. Pierce 1-Step Turbo™ B-ELISA (3,3′,5,5′-tetramethylbenzidine, Pierce Cat. # 34022.
i. H2SO4, add 1 ml conc.(18 N) to 35 ml dH2O.
j. TRIS HCL, Fischer Cat. # BP152-5; to 121.14 g of material, add 600 ml MilliQ H2O, adjust pH to 7.5 (or 7.2) with HCl, bring volume to 1 L with MilliQ H2O.
k. NaCl, Fischer Cat. # S271-10, make up 5M solution.
m. Na3VO4, Fischer Cat. # S454-50, to 1.8 g material add 80 ml MilliQ H2O, adjust pH to 10.0 with HCl or NaOH, boil in microwave, cool, check pH, repeat procedure until pH stable at 10.0, add MilliQ H2O to 100 ml total volume, make 1 ml aliquots and store at −80° C.
n. MgCl2, Fischer Cat. # M33-500, make up 1M solution.
o. HEPES, Fischer Cat. # BP310-500, to 200 ml MilliQ H2O, add 59.6 g material, adjust pH to 7.5, bring volume to 250 ml total, sterile filter.
p. Albumin, Bovine (BSA), Sigma Cat. # A-4503, to 30 grams material add sterile distilled water to make total volume of 300 ml, store at 4° C.
q. TBST Buffer: to approx. 900 ml dH2O in a 1 L graduated cylinder add 6.057 g TRIS and 8.766 g NaCl, when dissolved, adjust pH to 7.2 with HCl, add 1.0 ml Triton X-100 and bring to 1 L total volume with dH2O.
r. Goat Affinity purified antibody Rabbit IgG (whole molecule), Cappel Cat. # 55641.
s. Anti h-Met (C-28) rabbit polyclonal IgG antibody, Santa Cruz Chemical Cat. # SC-161.
t. Transiently Transfected EGFR/Met chimeric cells (EMR) (Komada, et al., Oncogene, 8:2381-2390 (1993).
u. Sodium Carbonate Buffer, ([…], Fischer Cat. # S495) to 10.6 g material add 800 ml MilliQ H2O, when dissolved adjust pH to 9.6 with NaOH, bring up to 1 L total volume with MilliQ H2O, filter, store at 4° C.
All of the following steps are conducted at room temperature unless it is specifically indicated otherwise. All ELISA plate washing is by rinsing 4× with TBST.
This procedure can be performed the night before or immediately prior to the start of receptor capture.
1. Quick thaw lysates in a 37° C. waterbath with a swirling motion until the last crystals disappear.
2. Lyse cell pellet with 1× HNTG containing 1 mM PMSF. Use 3 ml of HNTG per 15 cm dish of cells. Add ½ the calculated HNTG volume, vortex the tube for 1 min., add the remaining amount of HNTG, vortex for another min.
3. Balance tubes, centrifuge at 10,000× g for 10 min at 4° C.
4. Pool supernatants, remove an aliquot for protein determination.
5. Quick freeze pooled sample in dry ice/ethanol bath. This step is performed regardless of whether lysate will be stored overnight or used immediately following protein determination.
6. Perform protein determination using standard bicinchoninic acid (BCA) method (BCA Assay Reagent Kit from Pierce Chemical Cat. # 23225).
1. Coat Corning 96 well ELISA plates with 5 μg per well Goat anti-Rabbit antibody in Carbonate Buffer for a total well volume of 50 μl. Store overnight at 4° C. […]

T1 sequence (P08581 with tags, fused parts or gaps): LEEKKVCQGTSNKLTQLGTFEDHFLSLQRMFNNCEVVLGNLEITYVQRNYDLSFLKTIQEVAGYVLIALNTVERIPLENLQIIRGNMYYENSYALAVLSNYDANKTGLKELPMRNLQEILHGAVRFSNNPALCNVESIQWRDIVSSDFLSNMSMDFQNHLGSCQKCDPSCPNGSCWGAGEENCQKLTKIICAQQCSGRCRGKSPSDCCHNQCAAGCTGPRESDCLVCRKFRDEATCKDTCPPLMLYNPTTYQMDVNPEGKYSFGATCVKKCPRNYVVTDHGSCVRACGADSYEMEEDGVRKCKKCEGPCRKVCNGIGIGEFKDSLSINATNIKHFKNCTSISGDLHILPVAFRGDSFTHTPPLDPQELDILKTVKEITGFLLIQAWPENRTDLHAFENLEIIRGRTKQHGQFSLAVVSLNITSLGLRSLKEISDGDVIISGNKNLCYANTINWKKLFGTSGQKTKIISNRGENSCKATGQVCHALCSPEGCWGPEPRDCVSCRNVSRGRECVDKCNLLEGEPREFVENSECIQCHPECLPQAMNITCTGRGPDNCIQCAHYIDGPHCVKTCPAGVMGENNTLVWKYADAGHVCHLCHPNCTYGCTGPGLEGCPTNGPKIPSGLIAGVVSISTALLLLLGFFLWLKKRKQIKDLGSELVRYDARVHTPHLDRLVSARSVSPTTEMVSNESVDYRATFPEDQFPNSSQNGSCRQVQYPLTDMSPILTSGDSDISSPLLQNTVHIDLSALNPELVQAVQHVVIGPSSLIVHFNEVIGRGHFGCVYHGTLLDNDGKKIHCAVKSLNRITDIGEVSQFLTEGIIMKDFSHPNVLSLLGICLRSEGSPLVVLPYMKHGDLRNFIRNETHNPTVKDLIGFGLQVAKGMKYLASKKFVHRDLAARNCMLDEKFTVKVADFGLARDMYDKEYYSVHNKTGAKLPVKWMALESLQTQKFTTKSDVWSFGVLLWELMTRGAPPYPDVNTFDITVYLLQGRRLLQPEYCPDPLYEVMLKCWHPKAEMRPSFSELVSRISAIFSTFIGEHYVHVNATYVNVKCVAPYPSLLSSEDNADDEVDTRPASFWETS

| SMILES | Met Kinase % Inhibition (P.130) |
| --- | --- |
| C=C(C)C1CC=C(C=C2C(=O)Nc3c(Br)cc(Br)c(C)c32)CC1 (stereo not drawn) [10731/H04] | 41.0% |
| Cc1c(Br)cc(Br)c2c1C(=Cc1coc3ccc(C(C)C)cc3c1=O)C(=O)N2 [10731/H05] | 32.2% |
| Cc1ccc2occ(C=C3C(=O)Nc4c(Br)cc(Br)c(C)c43)c(=O)c2c1 [10731/H06] | 17.2% |
| Cc1c(Br)cc(Br)c2c1C(=Cc1coc3ccc([N+](=O)[O-])cc3c1=O)C(=O)N2 [10731/H07] | 1.8% |
| Cc1c(Br)cc(Br)c2c1C(=Cc1c[nH]c(=O)[nH]c1=O)C(=O)N2 [10731/H08] | 10.9% |
| COc1ccc2[nH]cc(C=C3C(=O)Nc4c(Br)cc(Br)c(C)c43)c2c1 [10731/H09] | 12.8% |
| Cc1c(Br)cc(Br)c2c1C(=C1C(=O)N(C)c3ccccc31)C(=O)N2 [10731/H10] | 28.4% |
| Cc1c(Br)cc(Br)c2c1C(=CC(c1cccs1)C(F)(F)F)C(=O)N2 (stereo not drawn) [10732/H02] | 56.8% |
| COc1c(C(C)C)cc(C=C2C(=O)Nc3c(Br)cc(Br)c(C)c32)cc1C(C)C [10732/H03] | 24.1% |
| Cc1c(Br)cc(Br)c2c1C(=Cc1cc(C(C)C)c(Oc3ccccc3)c(C(C)C)c1)C(=O)N2 [10732/H04] | 57.6% |
| COc1ccc(C=C2C(=O)Nc3c(Br)cc(Br)c(C)c32)cc1C(C)(C)C [10732/H05] | 13.3% |
| Cc1c(Br)cc(Br)c2c1C(=Cc1ccc(OCc3ccccc3)c(C(C)(C)C)c1)C(=O)N2 [10732/H06] | 31.1% |
| COc1c(Br)cc(C=C2C(=O)Nc3c(Br)cc(Br)c(C)c32)cc1C(C)(C)C [10732/H07] | 26.7% |
| Cc1c(Br)cc(Br)c2c1C(=Cc1cc(Br)c(OCc3ccccc3)c(C(C)(C)C)c1)C(=O)N2 [10732/H08] | 38.7% |
| COc1c(Cl)cc(C=C2C(=O)Nc3c(Br)cc(Br)c(C)c32)cc1C(C)(C)C [10732/H09] | 49.8% |
| Cc1c(Br)cc(Br)c2c1C(=Cc1cc(Cl)c(OCc3ccccc3)c(C(C)(C)C)c1)C(=O)N2 [10732/H10] | 28.0% |
| COc1c(I)cc(C=C2C(=O)Nc3c(Br)cc(Br)c(C)c32)cc1C(C)(C)C [10732/H11] | 46.7% |
| Cc1c(Br)cc(Br)c2c1C(=Cc1cc(I)c(OCc3ccccc3)c(C(C)(C)C)c1)C(=O)N2 [10733/H02] | 38.9% |
| COc1c([N+](=O)[O-])cc(C=C2C(=O)Nc3c(Br)cc(Br)c(C)c32)cc1C(C)(C)C [10733/H03] | 0.6% |
| COc1c(C(C)(C)C)cc(C=C2C(=O)Nc3c(Br)cc(Br)c(C)c32)cc1C(C)(C)C [10733/H04] | 11.9% |
| Cc1c(Br)cc(Br)c2c1C(=Cc1cc(C(C)(C)C)c(OCc3ccccc3)c(C(C)(C)C)c1)C(=O)N2 [10733/H05] | 5.6% |
| COc1c(C)cc(C=C2C(=O)Nc3c(Br)cc(Br)c(C)c32)cc1C [10733/H06] | 18.4% |
| Cc1cc(C=C2C(=O)Nc3c(Br)cc(Br)c(C)c32)cc(C)c1OCc1ccccc1 [10733/H07] | −1.3% |
| COc1cc(Br)cc(C=C2C(=O)Nc3c(Br)cc(Br)c(C)c32)c1O [10733/H08] | 41.6% |
| Cc1c(Br)cc(Br)c2c1C(=Cc1cc(Br)ccc1O)C(=O)N2 [10733/H09] | 51.9% |
| Cc1c(Br)cc(Br)c2c1C(=Cc1cc([N+](=O)[O-])ccc1O)C(=O)N2 [10733/H10] | 26.5% |
| COc1c(O)ccc(C=C2C(=O)Nc3c(Br)cc(Br)c(C)c32)c1[N+](=O)[O-] [10733/H11] | 76.7% |
